Measurements published in ChEMBL document CHEMBL1921670, “Discovery and optimization of indole and 7-azaindoles as Rho kinase (ROCK) inhibitors (part-II)” (Bioorg Med Chem Lett, 2011).
≈ marks a conversion by molar mass, not a printed value. Calls of active or inactive are those of the source. The rule behind the calls is not given here.

How the values were obtained:
[1] = Oral bioavailability in rat at 2 mg/kg; assay type: ADME, organism-based; conditions: in vivo
[2] = Half life in human liver microsomes; assay type: ADME, Microsome
[3] = biological target: Rho-associated protein kinase 2 (Homo sapiens, UniProt O75116); assay: Inhibition of ROCK2
[4] = Cmax in rat at 2 mg/kg, po; assay type: ADME, organism-based; parameters: dose 2 mg/kg, route oral; conditions: in vivo
[5] = AUC in rat at 2 mg/kg, po; assay type: ADME, organism-based; parameters: dose 2 mg/kg, route oral; conditions: plasma
CYP1A2 = biological target: T1, CYP1A2 (Homo sapiens, UniProt P05177); assay: Inhibition of CYP1A2 at 10 uM; assay type: ADME
T1 sequence (P05177 whole entry): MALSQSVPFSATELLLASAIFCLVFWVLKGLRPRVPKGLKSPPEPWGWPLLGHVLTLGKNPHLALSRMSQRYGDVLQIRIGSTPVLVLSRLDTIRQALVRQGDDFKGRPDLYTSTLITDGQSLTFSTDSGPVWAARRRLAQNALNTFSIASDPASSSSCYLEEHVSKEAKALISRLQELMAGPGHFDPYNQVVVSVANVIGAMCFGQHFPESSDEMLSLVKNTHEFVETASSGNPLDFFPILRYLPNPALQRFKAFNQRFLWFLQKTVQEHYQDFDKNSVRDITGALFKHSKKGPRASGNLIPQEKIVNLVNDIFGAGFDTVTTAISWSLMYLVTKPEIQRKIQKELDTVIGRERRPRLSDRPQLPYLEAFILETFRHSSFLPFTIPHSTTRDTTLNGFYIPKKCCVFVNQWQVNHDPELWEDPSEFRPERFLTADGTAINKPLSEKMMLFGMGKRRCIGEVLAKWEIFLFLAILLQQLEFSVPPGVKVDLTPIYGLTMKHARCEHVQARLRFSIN

[6] = AUC in rat at 1 mg/kg, iv; assay type: ADME, organism-based; parameters: dose 1 mg/kg, route intravenous; conditions: plasma
[7] = Half life in rat at 1 mg/kg, iv or 2 mg/kg, po; assay type: ADME, organism-based; conditions: in vivo
[8] = Volume of distribution at steady state in rat at 1 mg/kg, iv or 2 mg/kg, po; assay type: ADME, organism-based; conditions: in vivo, read-out: Vdss
CYP2D6 = CYP2D6 (Homo sapiens, UniProt P10635); assay: Inhibition of CYP2D6 at 10 uM; assay type: ADME
CYP2C9 = CYP2C9 (Homo sapiens, UniProt P11712); assay: Inhibition of CYP2C9 at 10 uM; assay type: ADME
[9] = biological target: Rho-associated protein kinase 1 (Homo sapiens, UniProt Q13464); assay: Inhibition of ROCK1
CYP3A4 = CYP3A4 (Homo sapiens, UniProt P08684); assay: Inhibition of CYP3A4 at 10 uM; assay type: ADME
[10] = Inhibition of PKA
[11] = Clearance in rat at 1 mg/kg, iv or 2 mg/kg, po; assay type: ADME, organism-based; conditions: in vivo
[12] = Aqueous solubility of compound at pH 5.5; assay type: physicochemical; conditions: buffer
[13] = Aqueous solubility of compound at pH 7.4; assay type: physicochemical; conditions: buffer
[14] = Inhibition of myosin light chain bisphosphorylation by cell-based assay
[15] = biological target: Serine/threonine-protein kinase MRCK alpha (Homo sapiens) (UniProt Q5VT25); assay: Inhibition of MRCKalpha at 5 uM
[16] = Inhibition of p38 at 5 uM
[17] = biological target: RAC-alpha serine/threonine-protein kinase (Homo sapiens) (UniProt P31749); assay: Inhibition of AKT at 5 uM
[18] = biological target: Mitogen-activated protein kinase 10 (Homo sapiens) (UniProt P53779); assay: Inhibition of JNK3 at 5 uM
Sequence of Mitogen-activated protein kinase 10 (Homo sapiens) (P53779 whole entry): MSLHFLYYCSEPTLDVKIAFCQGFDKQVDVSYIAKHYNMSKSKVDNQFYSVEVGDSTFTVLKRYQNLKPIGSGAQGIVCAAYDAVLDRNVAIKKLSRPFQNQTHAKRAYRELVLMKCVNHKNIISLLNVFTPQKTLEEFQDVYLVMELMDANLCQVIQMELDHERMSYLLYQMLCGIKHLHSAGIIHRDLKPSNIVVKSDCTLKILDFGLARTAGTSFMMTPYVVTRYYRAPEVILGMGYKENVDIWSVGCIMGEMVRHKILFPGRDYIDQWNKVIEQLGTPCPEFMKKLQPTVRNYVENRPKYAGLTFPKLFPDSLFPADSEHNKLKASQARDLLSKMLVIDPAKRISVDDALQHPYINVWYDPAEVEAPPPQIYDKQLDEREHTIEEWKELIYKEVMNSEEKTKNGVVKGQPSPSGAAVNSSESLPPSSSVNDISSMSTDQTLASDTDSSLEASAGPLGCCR

Sequence of Rho-associated protein kinase 2 (O75116 whole entry): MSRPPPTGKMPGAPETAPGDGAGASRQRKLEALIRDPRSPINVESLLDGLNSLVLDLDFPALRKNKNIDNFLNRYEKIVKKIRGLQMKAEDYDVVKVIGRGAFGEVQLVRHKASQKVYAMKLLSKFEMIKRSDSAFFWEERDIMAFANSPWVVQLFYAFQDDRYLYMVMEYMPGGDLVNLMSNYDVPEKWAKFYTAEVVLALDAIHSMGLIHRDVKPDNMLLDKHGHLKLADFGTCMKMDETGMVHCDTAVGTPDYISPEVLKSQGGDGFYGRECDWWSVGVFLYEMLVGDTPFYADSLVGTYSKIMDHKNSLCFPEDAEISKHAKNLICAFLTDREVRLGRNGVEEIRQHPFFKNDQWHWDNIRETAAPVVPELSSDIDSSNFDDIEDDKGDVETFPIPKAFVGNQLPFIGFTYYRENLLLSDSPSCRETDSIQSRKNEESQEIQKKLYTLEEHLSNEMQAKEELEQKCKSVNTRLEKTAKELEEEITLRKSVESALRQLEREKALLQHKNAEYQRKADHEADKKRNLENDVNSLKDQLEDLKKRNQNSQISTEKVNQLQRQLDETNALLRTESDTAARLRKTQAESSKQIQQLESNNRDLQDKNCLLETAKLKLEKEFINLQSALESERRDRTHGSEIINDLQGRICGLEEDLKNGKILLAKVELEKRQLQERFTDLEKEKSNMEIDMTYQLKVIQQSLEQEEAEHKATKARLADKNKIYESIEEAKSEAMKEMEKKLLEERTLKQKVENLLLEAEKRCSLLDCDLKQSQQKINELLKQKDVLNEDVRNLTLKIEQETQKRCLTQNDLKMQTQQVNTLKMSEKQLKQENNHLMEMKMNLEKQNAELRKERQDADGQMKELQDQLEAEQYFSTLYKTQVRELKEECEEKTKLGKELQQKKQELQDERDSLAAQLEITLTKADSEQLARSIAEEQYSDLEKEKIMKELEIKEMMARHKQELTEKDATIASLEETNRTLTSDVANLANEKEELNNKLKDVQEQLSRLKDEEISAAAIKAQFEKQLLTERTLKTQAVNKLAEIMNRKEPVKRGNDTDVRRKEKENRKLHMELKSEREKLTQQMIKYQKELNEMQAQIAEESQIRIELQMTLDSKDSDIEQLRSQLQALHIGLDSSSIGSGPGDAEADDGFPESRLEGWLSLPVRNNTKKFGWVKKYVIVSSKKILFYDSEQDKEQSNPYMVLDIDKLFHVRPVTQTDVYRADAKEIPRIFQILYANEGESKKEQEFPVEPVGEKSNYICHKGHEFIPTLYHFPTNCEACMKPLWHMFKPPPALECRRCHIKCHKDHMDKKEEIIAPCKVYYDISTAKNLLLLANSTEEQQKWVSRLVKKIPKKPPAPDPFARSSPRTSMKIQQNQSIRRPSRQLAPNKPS
Sequence of CYP3A4 (P08684 whole entry): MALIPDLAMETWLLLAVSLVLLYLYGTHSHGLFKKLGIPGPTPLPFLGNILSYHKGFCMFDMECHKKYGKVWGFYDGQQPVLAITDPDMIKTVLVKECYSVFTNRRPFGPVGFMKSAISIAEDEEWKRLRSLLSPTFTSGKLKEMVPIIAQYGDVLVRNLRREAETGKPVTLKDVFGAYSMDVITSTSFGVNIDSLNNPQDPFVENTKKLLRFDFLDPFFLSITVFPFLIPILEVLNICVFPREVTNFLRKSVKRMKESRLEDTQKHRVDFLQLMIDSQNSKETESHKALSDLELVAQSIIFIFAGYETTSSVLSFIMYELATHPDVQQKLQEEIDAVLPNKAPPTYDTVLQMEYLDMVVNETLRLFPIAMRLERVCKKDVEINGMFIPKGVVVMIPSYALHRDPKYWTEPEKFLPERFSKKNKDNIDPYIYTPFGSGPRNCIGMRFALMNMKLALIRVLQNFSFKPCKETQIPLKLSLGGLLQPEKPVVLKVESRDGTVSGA
Sequence of Rho-associated protein kinase 1 (Q13464 whole entry): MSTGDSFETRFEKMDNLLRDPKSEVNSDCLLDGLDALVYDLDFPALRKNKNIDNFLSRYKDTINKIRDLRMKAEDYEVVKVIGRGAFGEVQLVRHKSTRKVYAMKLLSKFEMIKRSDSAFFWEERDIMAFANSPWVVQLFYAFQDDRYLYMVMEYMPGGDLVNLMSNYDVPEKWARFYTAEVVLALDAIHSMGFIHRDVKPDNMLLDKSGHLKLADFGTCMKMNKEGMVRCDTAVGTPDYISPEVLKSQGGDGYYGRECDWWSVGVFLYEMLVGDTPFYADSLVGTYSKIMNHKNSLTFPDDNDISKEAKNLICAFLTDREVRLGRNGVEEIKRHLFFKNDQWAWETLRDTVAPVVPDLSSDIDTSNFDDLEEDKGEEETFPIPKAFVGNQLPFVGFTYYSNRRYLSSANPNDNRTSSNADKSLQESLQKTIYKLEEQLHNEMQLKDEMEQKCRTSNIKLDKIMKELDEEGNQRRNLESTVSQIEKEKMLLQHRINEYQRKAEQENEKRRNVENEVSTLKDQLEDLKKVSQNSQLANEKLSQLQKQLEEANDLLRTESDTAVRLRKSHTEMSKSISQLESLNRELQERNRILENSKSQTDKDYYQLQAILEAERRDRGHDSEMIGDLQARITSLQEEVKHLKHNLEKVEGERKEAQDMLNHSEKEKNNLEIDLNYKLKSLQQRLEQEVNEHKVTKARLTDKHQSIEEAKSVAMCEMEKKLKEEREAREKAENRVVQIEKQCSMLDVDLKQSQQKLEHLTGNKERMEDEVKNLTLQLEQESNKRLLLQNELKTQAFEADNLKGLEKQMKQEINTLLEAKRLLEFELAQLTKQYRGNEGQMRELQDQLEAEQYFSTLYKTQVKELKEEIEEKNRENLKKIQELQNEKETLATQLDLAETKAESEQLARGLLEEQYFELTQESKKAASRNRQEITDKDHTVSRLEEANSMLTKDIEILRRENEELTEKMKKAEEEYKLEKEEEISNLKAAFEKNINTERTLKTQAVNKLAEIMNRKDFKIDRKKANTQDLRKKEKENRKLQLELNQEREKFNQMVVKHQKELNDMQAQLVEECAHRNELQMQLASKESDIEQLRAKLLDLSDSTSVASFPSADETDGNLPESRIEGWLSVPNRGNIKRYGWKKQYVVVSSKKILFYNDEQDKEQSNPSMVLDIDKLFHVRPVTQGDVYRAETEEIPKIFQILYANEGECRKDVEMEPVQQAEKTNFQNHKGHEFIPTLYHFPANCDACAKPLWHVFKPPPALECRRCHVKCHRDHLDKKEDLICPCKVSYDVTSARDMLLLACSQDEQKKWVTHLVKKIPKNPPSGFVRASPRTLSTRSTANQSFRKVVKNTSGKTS
Sequence of CYP2C9 (P11712 whole entry): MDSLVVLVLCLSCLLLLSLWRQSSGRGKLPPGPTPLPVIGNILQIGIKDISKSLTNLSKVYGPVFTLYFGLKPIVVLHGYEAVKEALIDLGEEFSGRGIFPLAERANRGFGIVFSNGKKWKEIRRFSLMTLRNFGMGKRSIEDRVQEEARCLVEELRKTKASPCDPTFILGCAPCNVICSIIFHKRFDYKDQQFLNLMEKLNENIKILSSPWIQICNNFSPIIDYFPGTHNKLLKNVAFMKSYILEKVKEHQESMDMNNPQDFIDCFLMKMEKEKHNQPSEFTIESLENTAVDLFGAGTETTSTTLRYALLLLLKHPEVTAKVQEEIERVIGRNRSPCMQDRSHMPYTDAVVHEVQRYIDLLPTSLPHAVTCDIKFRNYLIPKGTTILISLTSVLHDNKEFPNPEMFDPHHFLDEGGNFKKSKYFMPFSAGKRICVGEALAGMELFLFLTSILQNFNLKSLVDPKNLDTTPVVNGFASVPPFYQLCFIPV
Sequence of CYP2D6 (P10635 whole entry): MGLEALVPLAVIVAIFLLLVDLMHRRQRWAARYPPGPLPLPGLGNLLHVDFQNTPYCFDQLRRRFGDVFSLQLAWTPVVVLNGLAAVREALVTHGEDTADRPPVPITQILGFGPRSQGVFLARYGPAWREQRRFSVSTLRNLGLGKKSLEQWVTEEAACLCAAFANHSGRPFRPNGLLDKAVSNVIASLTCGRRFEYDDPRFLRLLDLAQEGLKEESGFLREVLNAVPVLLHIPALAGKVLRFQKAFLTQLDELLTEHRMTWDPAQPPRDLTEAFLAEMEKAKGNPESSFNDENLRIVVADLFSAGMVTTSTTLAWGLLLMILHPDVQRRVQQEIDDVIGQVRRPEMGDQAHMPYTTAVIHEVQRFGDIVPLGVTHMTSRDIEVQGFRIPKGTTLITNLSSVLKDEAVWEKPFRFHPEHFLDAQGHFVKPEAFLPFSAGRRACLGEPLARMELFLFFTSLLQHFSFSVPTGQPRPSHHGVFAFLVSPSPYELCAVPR

Compound | bioavailability [1] | half-life [2] | IC50 [3] | AUC [5] | inhibition at 10 µM (CYP1A2) | AUC [6] | half-life [7] | Vd [8] | inhibition at 10 µM (CYP2D6) | inhibition at 10 µM (CYP2C9) | IC50 [9] | inhibition at 10 µM (CYP3A4) | IC50 [10] | clearance [11] | solubility [12] | solubility [13] | other results
COc1cccc(CN(C(=O)c2cc3ccc(-c4cn[nH]c4)nc3[nH]2)C2CC2)c1 | 22% | 27 min | 8 nM | 1 µM·h | 16% | 2.2 µM·h | 54 min | 1.2 L/kg | 30% | 52% | 33 nM | 40% | 1700 nM | 21 mL/min/kg | – | – | Cmax [4]: 255 nM
COc1cccc(CNC(=O)c2cn(CCN(C)C)c3cc(-c4cn[nH]c4)ccc23)c1 | 1% | 20 min | < 1 nM | 0.02 µM·h | -6% | 1 µM·h | 72 min | 3.2 L/kg | 53% | 91% | 5 nM | 70% | 7000 nM | 42 mL/min/kg | ≥ 100 µM | 77 µM (≈ 32100 ng/mL) | IC50 [14]: 23 nM
COc1cccc(CNC(=O)c2cc3ccc(-c4cn[nH]c4)nc3n2CCN(C)C)c1 | – | 17 min | 43 nM | – | 26% | – | – | – | 55% | 46% | 243 nM | 65% | 3670 nM | – | – | – | inhibition [15]: inactive; inhibition [16]: inactive; inhibition [17]: inactive; inhibition [18]: inactive
COc1cccc(CNC(=O)c2cc3ccc(-c4cn[nH]c4)nc3n2C)c1 | 35% | 68 min | < 1 nM | 7.9 µM·h | 1% | 11.5 µM·h | 108 min | 0.5 L/kg | 48% | 76% | 2 nM | 40% | 150 nM | 4 mL/min/kg | – | – | Cmax [4]: 1190 nM; IC50 [14]: 25 nM
COc1cccc(CNC(=O)c2cc3ccc(-c4cn[nH]c4)nc3n2CCCO)c1 | – | – | 24 nM | – | – | – | – | – | – | – | 88 nM | – | 5800 nM | – | – | – | inhibition [15]: inactive; inhibition [16]: inactive; inhibition [17]: inactive; inhibition [18]: inactive

Now from value to compound, other results behind:

bioavailability [1] | half-life [2] | IC50 [3] | AUC [5] | inhibition at 10 µM (CYP1A2) | AUC [6] | half-life [7] | Vd [8] | inhibition at 10 µM (CYP2D6) | inhibition at 10 µM (CYP2C9) | IC50 [9] | inhibition at 10 µM (CYP3A4) | IC50 [10] | clearance [11] | solubility [12] | solubility [13] | Compound | other results
– | – | – | – | – | – | – | – | – | – | – | – | 510 nM | – | ≤ 0.01 µM | ≤ 0.01 µM | COc1cccc(CNC(=O)c2c[nH]c3cc(-c4cn[nH]c4)ccc23)c1 | –
– | – | – | – | – | – | – | – | – | – | – | – | 6700 nM | – | ≤ 0.01 µM | ≤ 0.01 µM | COc1cccc(CNC(=O)c2cc3ccc(-c4cn[nH]c4)cc3[nH]2)c1 | –
